From article PMC9016803, “Mitochondria-targeted half-sandwich iridium(III)-Cp*-arylimidazophenanthroline complexes as antiproliferative and bioimaging agents against triple negative breast cancer cells MDA-MB-468” (RSC Advances, 2022)

Assays:
MDA-MB-468 cells [1] = test: MTT in vitro cytotoxicity assay, triple negative breast cancer cells; format: cell-based; conditions: MDA-MB-468, MTT, 48 h
Description: The in vitro cytotoxicity of complexes IrL1–IrL5 and cisplatin were investigated using the typical 3-(4,5-dimethylthiazol-2-yl)-2,5-diphenyltetrazolium bromide (MTT) assay protocol against a panel of triple negative cancer cell line MDA-MB-468. The cells were initially incubated with the all test compounds at concentrations ranging from 0.5–50 μM for 48 h in vitro.
Cytotoxicity study of all the synthesized compounds against triple negative breast cancer cells MDA-MB-468 and immortalized human keratinocyte cell line HaCaT were done with a drug incubation period of 48 h by following standard procedure that were mentioned in ESI. ^† Preliminary studies were done to understand the mode of action of the complex to induce cytotoxicity using flow cytometric methods.
For doing the cell culture the cells were retained in DMEM media (Gibco), added with 10% fetal bovine serum (Himedia, India), 1% penicillin and streptomycin and 1% of Glutmax (Gibco, Thermo Scientific, USA) at 37°C in 5% CO2. When the cells attained 70%-80% confluency they were trypsinized using 0.25% trypsin-EDTA (Thermo Fisher Scientific, […]
In vitro cytotoxicity study was measured by standard MTT assay protocol.1 First the prepared complexes (IrL1-IrL5) were dissolved in 0.1% DMSO followed by dilution with DMEM medium. One cancer cell lines i.e. triple negative breast cancer cells (MDA-MB-468) and one normal cell line i.e. immortalized human keratinocyte cell line (HaCaT) were used for this assay. Approximately 1×10^4 cells per well were cultured in 100 μl of a growth medium in 96-well plates and then incubated under 5% CO2 atmosphere at 37°C temperature. Then the incubated cells were treated with different concentrations of the complexes in the volume of […]. The cisplatin was taken as standard positive control for this experiment. The Cells which were in the control wells, also engaged the same volume of medium containing 0.1% DMSO. After 48 h, the medium was superfluous and cell cultures were again incubated with 100 μL of MTT reagent (1 mg/ml) for 5 h at 37 °C. Then the resultant suspension was kept on micro vibrator for 10 min and the absorbance was recorded at λ = 570 nm in ELISA plate reader. The experiment was also performed in triplicate. The data were represented as the growth inhibition percentage i.e. % growth inhibition = 100 − [(AD × 100)/AB], where AD, measured absorbance in wells which contain samples and AB, measured absorbance for blank wells (cells with a medium and a vehicle). […]

MDA-MB-468 cells [2] = test: Cell cycle analysis; format: cell-based; conditions: 5 μM
Description: The IrL1 complex exerted a G0/G1 cell cycle arrest at the highest tested concentration of 5 μM. The effects of various concentrations of IrL1 complex on the cell cycle of breast cancer cell line MDA-MB-468 cells were further explored by cell cycle analysis.

MDA-MB-468 cells [3] = test: Mitochondrial membrane potential, JC-1 staining, flow cytometry; format: cell-based
Description: The cells treated with the mitochondrial uncoupler CCCP (carbonyl cyanide m-chlorophenylhydrazone), which mediates the dissipation of mitochondrial membrane potential, served as positive control for the detection of mitochondrial dysfunction. […] Unstained control represented in Fig. 10A has been used for gating purposes. […]

[4] = Stability study by time-dependent UV-vis spectroscopy; format: physicochemical
Description: The stability studies of complex IrL1 were conducted in […] different solvents, i.e. aqueous DMSO (H2O : DMSO = 9 : 1) and aqueous GSH medium (Fig. 3) respectively in presence or absence of different concentrations of NaCl. It is essential that the complexes remain stable in the biological environments of cells, and thus the stability studies were performed. […] It has been reported that many cancer cells become resistant to various drugs by increasing their cellular glutathione level.[28]
For doing the cell culture the cells were retained in DMEM media (Gibco), added with 10% fetal bovine serum (Himedia, India), 1% penicillin and streptomycin and 1% of Glutmax (Gibco, Thermo Scientific, USA) at 37°C in 5% CO2. […]
In vitro cytotoxicity study was measured by standard MTT assay protocol.1 First the prepared complexes (IrL1-IrL5) were dissolved in 0.1% DMSO followed by dilution with DMEM medium. […] Then the resultant suspension was kept on micro vibrator for 10 min and the absorbance was recorded at λ = 570 nm in ELISA plate reader. […] The data were represented as the growth inhibition percentage i.e. % growth inhibition = 100 − [(AD × 100)/AB], where AD, measured absorbance in wells which contain samples and AB, measured absorbance for blank wells (cells with a medium and a vehicle). […]

[5] = n-Octanol/water partition coefficient, shake flask method; format: physicochemical
Description: Both hydrophilicity and lipophilicity studies were performed to determine the tumour-inhibiting potential of the metal complexes. These complexes were highly soluble in DMSO and moderately soluble in H2O, MeOH, EtOH and CH3CN. […] The lipophilicity of these complexes was determined by performing an n-octanol/water partition coefficient (log Po/w, where Po/w = the octanol/water partition coefficient) study using the shake flask method (Table 1).[24] The experimental log Po/w values of these complexes were determined to be in the range of 0.27–0.34 (Table 1). […] This change in the electrolytic behaviour of the complexes from 1 : 1 to 1 : 2 can be attributed to the dissociation of the Ir–Cl bond and subsequent aquation of the complexes. […]
n-Octanol–water partition coefficient (log P o/w)9
The log Po/w of the iridium complexes were adhering to shake flask method using the previously published procedure. A known amount of each complex (IrL1-IrL5) was suspended in water (pre-saturated with n-octanol) and shaken for 48 h on an orbital shaker.
To allow the phase separation, the solution was centrifuged for 10 min at 3000 rpm. To obtain the partition coefficient, different ratios (0.5: 1, 1: 1, and 2: 1) of the saturated solutions were shaken with pre-saturated n-octanol for 20 min on an orbital shaker and followed the same procedure. Aliquots of the aqueous and octanol layers were pipetted out separately and the absorbances were measured with UV-Vis spectrophotometer using proper dilution. Each set was performed in triplicate, concentration of the substances in each layer was calculated using the respective molar extinction coefficients and the partition coefficient (log P o/w) values were obtained from the ratio.

## [Iridium(III)-Cp*-2-(naphthalen-1-yl)-1H-imidazo[4,5-f][1,10]phenanthroline]PF6 [IrL1]
MDA-MB-468 cells [1]
  IC50: 3.67 µM
MDA-MB-468 cells [2]
  G0/G1 phase cells: 53.32%
  G2/M phase cells: ~18.37%
  S phase cells: ~28.32%
MDA-MB-468 cells [3]; 1 μM
  cells with damaged mitochondria (JC-1 monomers): 27.86%
MDA-MB-468 cells [3]; 3 μM
  cells with damaged mitochondria (JC-1 monomers): ~47.52%
MDA-MB-468 cells [3]; 5 μM
  cells with damaged mitochondria (JC-1 monomers): 67.02%
[4]; aqueous DMSO (H2O : DMSO = 9 : 1), after 24 h
  decrease in absorbance: 15–30%
[4]; excess (10 eq.) glutathione, time-dependent UV spectroscopy
  effect of GSH on stability: GSH didn't have much impact on the stability
[5]
  log P (n-octanol/water partition coefficient): 0.27 ± 0.07
